According to US10617735B2, “Methods and compositions for preserving retinal ganglion cells” (Massachusetts Eye and Ear Infirmary, priority 2010, dated 2020):
Where a SMILES comes first, the peptide text is derived from it. The star is where a group is joined. Cbz = O=C(OCc1ccccc1)*; CH2F = FC*

What was measured:
[1] = system: caspase-8, caspase-9 and caspase-3; assay: Caspase-8, caspase-9 and caspase-3 activities in the retina after ON injury (commercial kit); type: in vivo, mouse; conditions: one day after ON injury, intravitreal Z-VAD
Excerpt: (§1) Two mouse models of RGC death were utilized: optic nerve (ON) injury and N-methyl-D-aspartate (NMDA) retinal excitotoxicity. ON injury leads to RGC death as a result of primary damage to the axons, with its ensuing disruption of retrograde axonal transport (Libby et al., (2005) PLOS GENET 1:17-26) and is used as an RGC death model. In the ON injury model, mice were anesthetized and subjected to severe crush injury at 1-2 mm distance from the eyeball for 15 seconds using cross-action forceps taking special care not to interfere with the blood supply (Levkovitch-Verbin, (2004) EYE 18:1066-1074). Injured mice were randomly divided into 4 groups for treatment: vehicle group (0.5% DMSO and 0.8% cyclodextrin in PBS, n=6), ZVAD group (300 n=6), Nec-1 group (4 mM, n=6), and ZVAD plus Nec-1 group (n=6). Soon after injury, each group received an intravitreal injection (2 μl) with the respective compounds. […]
In human glaucoma, RGC death has been attributed mainly to apoptosis (Kerrigan et al., (1997), Tatton et al., (2001)). […] The activities of caspase-8, caspase-9 and caspase-3 were measured using a commercially available kit according to the manufacturer's instructions (APT171/131/139; Millipore, Billerica, Mass.).

[2] = system: retinal ganglion cells (RGCs); assay: NMDA retinal excitotoxicity model: TUNEL staining; type: in vivo, mouse; conditions: NMDA injected intravitreously in combination with the compounds
Excerpt: as §1, with “compounds. In the NMDA retinal excitotoxicity model, NMDA (2 μl of a 0.1M stock; Sigma-Aldrich) was injected intravitreously in combination with ZVAD, Nec-1, or ZVAD plus Nec-1 and mice were separated into the aforementioned 4 groups.” for “compounds.”

[3] = system: retinal ganglion cells (RGCs); assay: NMDA retinal excitotoxicity model: Brn3b positive cells; type: in vivo, mouse; conditions: NMDA injected intravitreously in combination with the compounds
Excerpt: as §1, with “compounds. In the NMDA retinal excitotoxicity model, NMDA (2 μl of a 0.1M stock; Sigma-Aldrich) was injected intravitreously in combination with ZVAD, Nec-1, or ZVAD plus Nec-1 and mice were separated into the aforementioned 4 groups.” for “compounds.”

ROS = assay: Protein carbonyl contents in retina after ON injury (ELISA); type: in vivo, mouse; conditions: one day after ON injury; compared with vehicle group
Procedure: It has been reported that RIP kinases control ROS generation during programmed necrosis (Cho et. al., (2009) CELL 137:1112-1123, Zhang et al., (2009) SCIENCE 325:332-336)). To investigate whether ROS play a roll in oxidative retinal damage after ON injury, protein level of carbonyl contents was analyzed using ELISA using the OxiSelect™ Protein Carbonyl ELISA Kit (Cell Biolabs, San Diego, Calif.).
To investigate the role of autophagy in RGC death after ON injury, we examined the effect of 3-methyladenine (3-MA) on RGCs death after ON injury. 3-MA inhibits autophagosome formation (Seglen and Gordon, (1982) PROC NATL ACAD SCI USA 79:1889-1892)). One day after ON injury, TUNEL assay was performed. […] In addition, the number of Brn3b positive cells and IPL thickness were also analyzed. […] To investigate whether ROS play a role in oxidative retinal damage after ON injury, protein level of carbonyl contents was analyzed using an ELISA kit (Cell Biolabs, San Diego, Calif.) according to the manufacturer's instructions. One day after ON injury, carbonyl contents decreased in the 3-MA treated group compared with untreated control (FIG. 10F).

Atg5, 7 and 12 = assay: Atg5, Atg7 and Atg12 expression after ON injury (quantitative RT-PCR); type: in vivo, mouse; conditions: one day after ON injury; compared with vehicle treatment
Procedure: Total RNA extraction, cDNA synthesis and PCR amplification have been performed as previously reported (Kayama et al., (2010) OPHTHALMIC RES 43:79-91). A real-time PCR assay was performed with Prism 7700 Sequence Detection System (Applied Biosystems, Foster City, Calif.). The primers are shown below in Table 1.
For relative comparison of each gene, the Ct value of real-time PCR data was analyzed with the ΔΔCt method and normalized to an endogenous control ([…].
To investigate whether autophagy influences RGC death after ON injury, expression of several genes critical for autophagosome formation including Atg5, 7 and 12 was measured by quantitative RT-PCR. […] In contrast, administration of ZVAD plus Nec-1, or Rip3 deficiency suppressed expression of Atg5, 7 and 12 transcripts (FIGS. 9A-9C).

LC3-II = assay: LC3 protein level after ON injury (western blot); type: in vivo, mouse; conditions: one day after ON injury
Procedure: For Western blot analysis, whole retinas were harvested and lysed for 30 min on ice in lysis buffer (50 mM Tris-HCl [pH 8], with 120 mM NaCl and 1% Nonidet P-40), supplemented with a mixture of proteinase inhibitors (Complete Mini; Roche Diagnostics, Basel, Switzerland). Thirty micrograms of protein per sample were separated in a 4-20% gradient sodium dodecyl sulfate-polyacrylamide gel (SDS-PAGE) (Invitrogen Corporation, Carlsbad, Calif., USA) electrophoresis and the proteins were electroblotted onto PVDF membranes. After 20 min incubation in blocking solution (Starting Block™ T20, Thermo Scientific, Waltham, Mass.), membranes were incubated with primary antibodies overnight at 4° C. Peroxidase-labeled secondary antibodies (Amersham Pharmacia Biotech, Piscataway, N.J., USA) were used and proteins were visualized with enhanced chemiluminescence technique (Amersham Pharmacia Biotech). Full list of primary antibodies and working concentrations are shown below in Table 2.
Protein levels of LC3, an autophagy marker, were also assessed by western blot analysis.

[4] = studies on which the dose was selected; cited from earlier work

With COC(=O)CC(NC(=O)C(C)NC(=O)C(NC(=O)OCc1ccccc1)C(C)C)C(=O)CF (stereo not drawn) [Z-VAD, Benzyloxycarbonyl-Val-Ala-Asp(OMe)-fluoromethylketone] (Cbz-Val-Ala-Asp(OMe)-CH2F; configuration not given here) the “decrease of the activities of the caspases” value [1] was 70%, the “number of TUNEL positive cells” value [2] was “decreased the number of TUNEL positive cells” and the “reduction of Brn3b positive cells” value [3] was “prevented the reduction of Brn3b positive cells”. The “carbonyl contents (protein level, ELISA)” value (ROS) was “dramatically increased”, the Atg12 expression (Atg5, 7 and 12) was “further increased” and the “protein level of LC3-II” value (LC3-II) was “increased more than vehicle”. For the same molecule, the “half-life inside the eye” value [4] was “around 6 hours”.
